In brackets after ≈: the same amount, converted by molar mass.
Tests used:
Cryptococcus neoformans = assay: Antifungal activity against Cryptococcus neoformans ATCC 24067 after 72 hrs by microbroth dilution assay; format: functional; conditions: ATCC 24067, 72 h
Candida parapsilosis = assay: Antifungal activity against Candida parapsilosis ATCC 22019 after 48 hrs by microbroth dilution assay; format: functional; conditions: Lodderomyces parapsilosis, ATCC 22019, 48 h
Candida albicans = assay: Antifungal activity against Candida albicans ATCC 18804 after 48 hrs by microbroth dilution assay; format: functional; conditions: ATCC 18804, 48 h
Candida tropicalis = assay: Antifungal activity against Candida tropicalis ATCC 750 after 48 hrs by microbroth dilution assay; format: functional; conditions: ATCC 750, 48 h
[1] = test system: Paracoccidioides brasiliensis; assay: Antifungal activity against Paracoccidioides brasiliensis Pb18 after 7 days by microbroth dilution assay; format: functional; conditions: 168 h
[2] = test system: Cryptococcus bacillisporus; assay: Antifungal activity against Cryptococcus gattii ATCC 32608 after 72 hrs by microbroth dilution assay; format: functional; conditions: ATCC 32608, 72 h
Pichia kudriavzevii = assay: Antifungal activity against Candida krusei ATCC 20298 after 48 hrs by microbroth dilution assay; format: functional; conditions: ATCC 20298, 48 h
HEK293 = assay: Cytotoxicity against human HEK293 cells after 72 hrs by MTT assay; format: cell-based; conditions: HEK293, 72 h
[3] = Cytotoxicity against human HEK293 cells assessed as cell viability at 250 uM after 72 hrs by MTT assay relative to control; format: cell-based; conditions: read-out: Activity

## COc1cc(/C=C/C(C)=N/Nc2nc(-c3ccc(Cl)cc3)cs2)ccc1O
Cryptococcus neoformans
  MIC: 250 µM (≈ 100 µg/mL)
Candida parapsilosis
  MIC: 250 µM (≈ 100 µg/mL)
Candida albicans
  MIC: 250 µM (≈ 100 µg/mL)
Candida tropicalis
  MIC: 250 µM (≈ 100 µg/mL)
[1]
  MIC: 62.5 µM (≈ 25 µg/mL)
[2]
  MIC: 125 µM (≈ 50 µg/mL)
Pichia kudriavzevii
  MIC: 250 µM (≈ 100 µg/mL)

## CC(C)(C)/C=N/Nc1nc(-c2ccccc2)cs1
Cryptococcus neoformans
  MIC: 1.9 µM (≈ 0.493 µg/mL)
Candida parapsilosis
  MIC: 3.9 µM (≈ 1.01 µg/mL)
Candida albicans
  MIC: 3.9 µM (≈ 1.01 µg/mL)
Candida tropicalis
  MIC: 31.2 µM (≈ 8.09 µg/mL)
[1]
  MIC: 125 µM (≈ 32.4 µg/mL)
[2]
  MIC: 1.9 µM (≈ 0.493 µg/mL)
Pichia kudriavzevii
  MIC: 5.8 µM (≈ 1.5 µg/mL)

## Clc1ccc(-c2csc(N/N=C/C=C/c3ccccc3)n2)cc1
Cryptococcus neoformans
  MIC: > 250 µM
Candida parapsilosis
  MIC: > 250 µM
Candida albicans
  MIC: > 250 µM
Candida tropicalis
  MIC: > 250 µM
[1]
  MIC: > 250 µM
[2]
  MIC: > 250 µM
Pichia kudriavzevii
  MIC: > 250 µM

## COc1cc(/C=C/C(C)=N/NC(N)=S)ccc1O
Cryptococcus neoformans
  MIC: > 250 µM
Candida parapsilosis
  MIC: > 250 µM
Candida albicans
  MIC: > 250 µM
Candida tropicalis
  MIC: > 250 µM
[1]
  MIC: > 250 µM
[2]
  MIC: > 250 µM
Pichia kudriavzevii
  MIC: > 250 µM

## C/C(=N\Nc1nc(-c2ccc(Cl)cc2)cs1)c1ccc(N)cc1
Cryptococcus neoformans
  MIC: > 250 µM
Candida parapsilosis
  MIC: > 250 µM
Candida albicans
  MIC: > 250 µM
Candida tropicalis
  MIC: > 250 µM
[1]
  MIC: > 250 µM
[2]
  MIC: > 250 µM
Pichia kudriavzevii
  MIC: > 250 µM

## COc1ccc(-c2csc(N/N=C(C)/C=C/c3ccc(O)c(OC)c3)n2)cc1
Cryptococcus neoformans
  MIC: 250 µM (≈ 98.9 µg/mL)
Candida parapsilosis
  MIC: 250 µM (≈ 98.9 µg/mL)
Candida albicans
  MIC: 250 µM (≈ 98.9 µg/mL)
Candida tropicalis
  MIC: 250 µM (≈ 98.9 µg/mL)
[2]
  MIC: 250 µM (≈ 98.9 µg/mL)
Pichia kudriavzevii
  MIC: 250 µM (≈ 98.9 µg/mL)

## COc1cc(/C=C/C(C)=N/Nc2nc(-c3ccccc3)cs2)ccc1O
Cryptococcus neoformans
  MIC: 250 µM (≈ 91.4 µg/mL)
Candida parapsilosis
  MIC: 250 µM (≈ 91.4 µg/mL)
Candida albicans
  MIC: 250 µM (≈ 91.4 µg/mL)
Candida tropicalis
  MIC: 250 µM (≈ 91.4 µg/mL)
[1]
  MIC: 250 µM (≈ 91.4 µg/mL)
[2]
  MIC: 250 µM (≈ 91.4 µg/mL)
Pichia kudriavzevii
  MIC: 250 µM (≈ 91.4 µg/mL)

## CC(C)(C)/C=N/NC(N)=S
Cryptococcus neoformans
  MIC: > 250 µM
Candida parapsilosis
  MIC: > 250 µM
Candida albicans
  MIC: > 250 µM
Candida tropicalis
  MIC: > 250 µM
[1]
  MIC: > 250 µM
[2]
  MIC: > 250 µM
Pichia kudriavzevii
  MIC: > 250 µM

## CCC/C(CC)=N/NC(N)=S
Cryptococcus neoformans
  MIC: > 250 µM
Candida parapsilosis
  MIC: > 250 µM
Candida albicans
  MIC: > 250 µM
Candida tropicalis
  MIC: > 250 µM
[1]
  MIC: > 250 µM
[2]
  MIC: > 250 µM
Pichia kudriavzevii
  MIC: > 250 µM

## C[C@@H]1[C@H](O)[C@@H](C)/C=C/C=C/C=C/C=C/C=C/C=C/C=C/[C@H](O[C@@H]2O[C@H](C)[C@@H](O)[C@H](N)[C@@H]2O)C[C@@H]2O[C@](O)(C[C@@H](O)C[C@@H](O)[C@H](O)CC[C@@H](O)C[C@@H](O)CC(=O)O[C@H]1C)C[C@H](O)[C@H]2C(=O)O [AMPHOTERICIN B]
Cryptococcus neoformans
  MIC: 0.09 µM (≈ 0.0832 µg/mL)
HEK293
  IC50: 78.6 µM
Candida parapsilosis
  MIC: 0.5 µM (≈ 0.462 µg/mL)
Candida albicans
  MIC: 0.3 µM (≈ 0.277 µg/mL)
Candida tropicalis
  MIC: 1.2 µM (≈ 1.11 µg/mL)
[1]
  MIC: 0.06 µM (≈ 0.0554 µg/mL)
[2]
  MIC: 0.08 µM (≈ 0.0739 µg/mL)
Pichia kudriavzevii
  MIC: 0.5 µM (≈ 0.462 µg/mL)

## OC(Cn1cncn1)(Cn1cncn1)c1ccc(F)cc1F [FLUCONAZOLE]
Cryptococcus neoformans
  MIC: 6.2 µM (≈ 1.9 µg/mL)
[3]
  viability at 72 h, 250 µM: 99.2%
HEK293
  IC50: > 250 µM
Candida parapsilosis
  MIC: 3.2 µM (≈ 0.98 µg/mL)
Candida albicans
  MIC: 1.6 µM (≈ 0.49 µg/mL)
Candida tropicalis
  MIC: 6.5 µM (≈ 1.99 µg/mL)
[2]
  MIC: 12.7 µM (≈ 3.89 µg/mL)
Pichia kudriavzevii
  MIC: 104 µM (≈ 32 µg/mL)

## CCC(C)n1ncn(-c2ccc(N3CCN(c4ccc(OCC5COC(Cn6cncn6)(c6ccc(Cl)cc6Cl)O5)cc4)CC3)cc2)c1=O (configuration not stated) [ITRACONAZOLE]
Cryptococcus neoformans
  MIC: 0.04 µM (≈ 0.0282 µg/mL)
[3]
  viability at 72 h, 250 µM: 90.8%
HEK293
  IC50: > 250 µM
Candida parapsilosis
  MIC: 0.18 µM (≈ 0.127 µg/mL)
Candida albicans
  MIC: 0.7 µM (≈ 0.494 µg/mL)
Candida tropicalis
  MIC: 0.09 µM (≈ 0.0635 µg/mL)
[1]
  MIC: 0.06 µM (≈ 0.0423 µg/mL)
[2]
  MIC: 0.18 µM (≈ 0.127 µg/mL)
Pichia kudriavzevii
  MIC: 0.18 µM (≈ 0.127 µg/mL)

Source: ChEMBL document CHEMBL4152194, “Synthesis, molecular modeling studies and evaluation of antifungal activity of a novel series of thiazole derivatives” (Eur J Med Chem, 2018)
